Assay results: BindingDB's records for doi:10.1016/j.ejmech.2023.115171 (Shenyang Pharmaceutical University, 2023)
pIC50: −log10 of the molar value.

These compounds were tested against Hypoxia-inducible factor 1-alpha (assay: Inhibition of HIF-1 alpha transcriptional activity in human U-251 cells incubated for 24 hrs under hypoxia condition by luciferse reporter assay).
Work on `COc1ccc(/C=C/C(=O)c2ccc3c(c2O)C=CC(C)(C)O3)cc1OCCN1CCOCC1` yielded a pIC50 of 4.97. With `CCN(CC)CCCOc1cc(/C=C/C(=O)c2ccc3c(c2O)C=CC(C)(C)O3)ccc1OC` the pIC50 was 5.25. `COc1cc(/C=C/C(=O)c2ccc3c(c2O)C=CC(C)(C)O3)ccc1OCCN1CCN(C)CC1` was tested, and the pIC50 was 5.44. `COc1ccc(/C=C/C(=O)c2ccc3c(c2O)C=CC(C)(C)O3)cc1OCCCN1CCCCC1` gave a pIC50 of 5.27. With `COc1cc(/C=C/C(=O)c2ccc3c(c2O)C=CC(C)(C)O3)ccc1OCCCN1CCC(C)CC1` the pIC50 was 5.42. Work on `COc1ccc(/C=C/C(=O)c2ccc3c(c2O)C=CC(C)(C)O3)cc1OCCN1CCCC1` yielded a pIC50 of 5.62. In the case of `COc1cc(/C=C/C(=O)c2ccc3c(c2O)C=CC(C)(C)O3)ccc1OCCCN1CCCCC1`, the pIC50 was 5.26. Compound `COc1ccc(/C=C/C(=O)c2ccc3c(c2O)C=CC(C)(C)O3)cc1OCCCN1CCCC1` has a pIC50 of 5.62. For `CCN(CC)CCOc1ccc(/C=C/C(=O)c2ccc3c(c2O)C=CC(C)(C)O3)cc1OC`, the pIC50 was 5.20. In the case of `COc1cc(/C=C/C(=O)c2ccc3c(c2O)C=CC(C)(C)O3)ccc1OCCN1CCOCC1`, the pIC50 was 5.09. Work on `COc1ccc(/C=C/C(=O)c2ccc3c(c2O)C=CC(C)(C)O3)cc1OCCCN1CCC(C)CC1` yielded a pIC50 of 5.21. With `COc1cc(/C=C/C(=O)c2ccc3c(c2O)C=CC(C)(C)O3)ccc1OCCCN1CCCC1` the pIC50 was 5.53. `COc1cc(/C=C/C(=O)c2ccc3c(c2O)C=CC(C)(C)O3)ccc1OCCN1CCCC1` showed a pIC50 of 5.19. `COc1ccc(/C=C/C(=O)c2ccc3c(c2O)C=CC(C)(C)O3)cc1OCCN1CCC(C)CC1` gave a pIC50 of 5.40. With `COc1ccc(/C=C/C(=O)c2ccc3c(c2O)C=CC(C)(C)O3)cc1OCCCN1CCN(C)CC1` the pIC50 was 5.28. With `CCN(CC)CCCOc1ccc(/C=C/C(=O)c2ccc3c(c2O)C=CC(C)(C)O3)cc1OC` the pIC50 was 5.20. In the case of `COc1ccc(/C=C/C(=O)c2ccc3c(c2O)C=CC(C)(C)O3)cc1OCCN1CCN(C)CC1`, the pIC50 was 5.44. `COc1cc(/C=C/C(=O)c2ccc3c(c2O)C=CC(C)(C)O3)ccc1OCCN1CCCCC1` gave a pIC50 of 5.27. For `COc1cc(/C=C/C(=O)c2ccc3c(c2O)C=CC(C)(C)O3)ccc1OCCCN1CCOCC1`, the pIC50 was 4.98. In the case of `COc1ccc(/C=C/C(=O)c2ccc3c(c2O)C=CC(C)(C)O3)cc1O`, the pIC50 was 5.16. With `COc1cc(/C=C/C(=O)c2ccc3c(c2O)C=CC(C)(C)O3)ccc1OCCCN1CCN(C)CC1` the pIC50 was 5.24. `COc1cc(/C=C/C(=O)c2ccc3c(c2O)C=CC(C)(C)O3)ccc1OCCN1CCC(C)CC1` showed a pIC50 of 5.24. With `COc1ccc(/C=C/C(=O)c2ccc3c(c2O)C=CC(C)(C)O3)cc1OCCCN1CCOCC1` the pIC50 was 5.48.
